Measured values published in ChEMBL document CHEMBL1201862, “PubChem BioAssay data set” (2004).
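A five-concentration, 48-hour dose response in 96-well plates underlies each endpoint, interpolated linearly between surrounding concentrations. GI50: concentration for 50% inhibition of growth.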 Activity calls are given as the source filed them. Rule as the data show it: active = GI50 up to about 1.1 µM and inactive = higher.

Assays:
Assay in all cases: NCI-60 cell line screen, 48 h
[1] = system: SK-MEL-28
[2] = system: 786-0
[3] = system: RPMI-8226
[4] = system: MDA-MB-435
[5] = system: HT-29
[6] = system: HCC 2998
[7] = system: SNB-19
[8] = system: Malme-3M
[9] = system: SK-MEL-2
[10] = system: U-251
[11] = system: NCI-H460
[12] = system: NCI-H23
[13] = system: SW-620
[14] = system: OVCAR-8
[15] = system: DU-145
[16] = system: HOP-92
[17] = system: OVCAR-5
[18] = system: TK-10
[19] = system: K562
[20] = system: MDA-N

In the case of N#Cc1c(SCc2ccccc2)nc(-c2ccccc2)[nH]c1=S, the GI50 [1] is reported as 22300 nM (inactive), the GI50 [2] is reported as 22300 nM (inactive) and the GI50 [3] is reported as 24700 nM (inactive). For the same compound, the GI50 [4] was 24000 nM (inactive), the GI50 [5] was 28400 nM (inactive) and the GI50 [6] was 19300 nM (inactive). For the same compound, the GI50 [7] was 29900 nM (inactive), the GI50 [8] was 37200 nM (inactive) and the GI50 [9] was 16700 nM (inactive). For the same compound, the GI50 [10] was 21400 nM (inactive), the GI50 [11] was 23200 nM (inactive) and the GI50 [12] was 18200 nM (inactive). The GI50 [13] was 25600 nM (inactive), the GI50 [14] was 27600 nM (inactive) and the GI50 [15] was 42000 nM (inactive). For the same compound, the GI50 [16] was 31600 nM (inactive), the GI50 [17] was 25800 nM (inactive) and the GI50 [18] was 32700 nM (inactive). For the same compound, the GI50 [19] was 31600 nM (inactive) and the GI50 [20] was 22600 nM (inactive).
With CC(O)c1cc2c(s1)C(=O)c1scc(C(C)O)c1C2=O (stereo not given) the GI50 [1] was 279 nM (active), the GI50 [2] was 2070 nM (inactive) and the GI50 [3] was 579 nM (active). For the same compound, the GI50 [4] was 175 nM (active), the GI50 [5] was 2430 nM (inactive) and the GI50 [6] was 1660 nM (inactive). For the same compound, the GI50 [7] was 667 nM (active), the GI50 [8] was 172 nM (active) and the GI50 [9] was 224 nM (active). The GI50 [10] was 419 nM (active), the GI50 [11] was 757 nM (active) and the GI50 [12] was 191 nM (active). The GI50 [13] was 321 nM (active), the GI50 [14] was 286 nM (active) and the GI50 [15] was 614 nM (active). For the same compound, the GI50 [16] was 1960 nM (inactive), the GI50 [17] was 1370 nM (inactive) and the GI50 [18] was 1690 nM (inactive). The GI50 [19] was 597 nM (active) and the GI50 [20] was 186 nM (active).
With O=C(O)C(Oc1nc(S)nc(S)n1)(c1ccc(Cl)cc1)c1ccc(Cl)cc1 the GI50 [1] was > 100000 nM (inactive), the GI50 [2] was > 100000 nM (inactive) and the GI50 [3] was > 100000 nM (inactive). The GI50 [4] was > 100000 nM (inactive), the GI50 [5] was > 100000 nM (inactive) and the GI50 [6] was 92700 nM (inactive). The GI50 [7] was > 100000 nM (inactive), the GI50 [8] was > 100000 nM (inactive) and the GI50 [9] was > 100000 nM (inactive). The GI50 [10] was > 100000 nM (inactive), the GI50 [11] was > 100000 nM (inactive) and the GI50 [12] was > 100000 nM (inactive). For the same compound, the GI50 [13] was > 100000 nM (inactive), the GI50 [14] was > 100000 nM (inactive) and the GI50 [15] was > 100000 nM (inactive). For the same compound, the GI50 [16] was > 100000 nM (inactive), the GI50 [17] was > 100000 nM (inactive) and the GI50 [18] was > 100000 nM (inactive). The GI50 [19] was > 100000 nM (inactive) and the GI50 [20] was > 100000 nM (inactive).
In the case of CCN(CC)CC(C)(C)C(=O)/C=C/c1ccc(/C=C/C(=O)C(C)(C)CN(CC)CC)cc1, the GI50 [1] is reported as 796 nM (active), the GI50 [2] is reported as 182 nM (active) and the GI50 [3] is reported as 157 nM (active). For the same compound, the GI50 [4] was 897 nM (active), the GI50 [5] was 211 nM (active) and the GI50 [6] was 333 nM (active). For the same compound, the GI50 [7] was 1530 nM (inactive), the GI50 [8] was 1120 nM (inactive) and the GI50 [9] was 1720 nM (inactive). The GI50 [10] was 469 nM (active), the GI50 [11] was 427 nM (active) and the GI50 [12] was 991 nM (active). The GI50 [13] was 211 nM (active), the GI50 [14] was 259 nM (active) and the GI50 [15] was 2010 nM (inactive). For the same compound, the GI50 [16] was 397 nM (active), the GI50 [17] was 1540 nM (inactive) and the GI50 [18] was 1190 nM (inactive). The GI50 [19] was 93.5 nM (active) and the GI50 [20] was 440 nM (active).
CCOC(=O)C1=C(C)N(Cc2ccccc2)C2(O)C=CC(O)=C3C(=O)c4ccccc4C(=O)C312 (stereo not given) was tested, and the GI50 [1] was 28600 nM (inactive), the GI50 [2] was 13400 nM (inactive) and the GI50 [3] was 9420 nM (inactive). For the same compound, the GI50 [4] was 8930 nM (inactive), the GI50 [5] was 31500 nM (inactive) and the GI50 [6] was 17000 nM (inactive). For the same compound, the GI50 [7] was 26500 nM (inactive), the GI50 [8] was 2430 nM (inactive) and the GI50 [9] was 13900 nM (inactive). For the same compound, the GI50 [10] was 16600 nM (inactive), the GI50 [11] was 11300 nM (inactive) and the GI50 [12] was 8610 nM (inactive). The GI50 [13] was 13600 nM (inactive), the GI50 [14] was 19100 nM (inactive) and the GI50 [15] was 16500 nM (inactive). The GI50 [16] was 17200 nM (inactive), the GI50 [17] was 15800 nM (inactive) and the GI50 [18] was 18500 nM (inactive). For the same compound, the GI50 [19] was 15100 nM (inactive) and the GI50 [20] was 6370 nM (inactive).
With COc1ccc(C2Oc3ccc(Cl)cc3C=C2[N+](=O)[O-])cc1OC (stereo not given) the GI50 [1] was 1270 nM (inactive), the GI50 [2] was 388 nM (active) and the GI50 [3] was 229 nM (active). The GI50 [4] was 150 nM (active), the GI50 [5] was 1000 nM (active) and the GI50 [6] was 1770 nM (inactive). The GI50 [7] was 1920 nM (inactive), the GI50 [8] was 1750 nM (inactive) and the GI50 [9] was 1480 nM (inactive). The GI50 [10] was 1050 nM (active), the GI50 [11] was 2380 nM (inactive) and the GI50 [12] was 1610 nM (inactive). For the same compound, the GI50 [13] was 188 nM (active), the GI50 [14] was 1120 nM (active) and the GI50 [15] was 1620 nM (inactive). The GI50 [16] was 1880 nM (inactive), the GI50 [17] was 1500 nM (inactive) and the GI50 [18] was 1510 nM (inactive). The GI50 [19] was 164 nM (active) and the GI50 [20] was 231 nM (active).
